Experimental data reported in patent US6737383B1, “Herbicidal oxadiazolidines” (priority 1999, dated 2004).

Columns and labels:
blackgrass = experiment: Test B pre/postemergence blackgrass; format: in vivo, Alopecurus myosuroides
Procedure, shortened: (§1)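 Response is a visual 0-to-10 score relative to untreated plants, where 0 means no effect and 10 means complete control, taken twelve to sixteen days after application. Treatments went onto soil at planting and onto foliage of 1- to 4-leaf plants, using a surfactant-containing non-phytotoxic solvent.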

surinam grass = experiment: Test B pre/postemergence surinam grass; format: in vivo, Brachiaria decumbens
Procedure, shortened: as §1

cocklebur = experiment: Test B pre/postemergence cocklebur; format: in vivo, Xanthium strumarium
Procedure, shortened: as §1

corn = experiment: Test B pre/postemergence corn; format: in vivo, Zea mays
Procedure, shortened: as §1

giant foxtail = experiment: Test B pre/postemergence giant foxtail; format: in vivo, Setaria faberii
Procedure, shortened: as §1

morningglory = experiment: Test B pre/postemergence morningglory; format: in vivo, Ipomoea hederacea; details: for Plant response rating, Morningglory: scale of 0 to 10 where 0 is no effect and 10 is complete control
Procedure, shortened: as §1

pigweed = experiment: Test B pre/postemergence pigweed; format: in vivo, Amaranthus retroflexus; details: for Plant response rating, Redroot pigweed: scale of 0 to 10 where 0 is no effect and 10 is complete control
Procedure, shortened: as §1

rape = experiment: Test B pre/postemergence rape; format: in vivo, Brassica napus; details: for Plant response rating, Rape: scale of 0 to 10 where 0 is no effect and 10 is complete control
Procedure, shortened: as §1

soybean = experiment: Test B pre/postemergence soybean; format: in vivo, Glycine max; details: for Plant response rating, Soybean: scale of 0 to 10 where 0 is no effect and 10 is complete control
Procedure, shortened: as §1

sugar beet = experiment: Test B pre/postemergence sugar beet; format: in vivo, Beta vulgaris; details: for Plant response rating, Sugarbeets: scale of 0 to 10 where 0 is no effect and 10 is complete control
Procedure, shortened: as §1

velvetleaf = experiment: Test B pre/postemergence velvetleaf; format: in vivo, Abutilon theophrasti; details: for Plant response rating, Velvetleaf: scale of 0 to 10 where 0 is no effect and 10 is complete control
Procedure, shortened: as §1

wheat = experiment: Test B pre/postemergence wheat; format: in vivo, Triticum aestivum; details: for Plant response rating, Wheat: scale of 0 to 10 where 0 is no effect and 10 is complete control
Procedure, shortened: as §1

wild oat = experiment: Test B pre/postemergence wild oat; format: in vivo, Avena fatua; details: for Plant response rating, Wild oats: scale of 0 to 10 where 0 is no effect and 10 is complete control
Procedure, shortened: as §1

rice = experiment: Test B flood test rice; format: in vivo, Oryza sativa
Procedure, shortened: (§2)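 Each value is a visual injury score relative to controls, with 10 meaning complete control and 0 no effect. Evaluation took place twelve to sixteen days after the 2-leaf-stage plants were treated and kept in the greenhouse.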

smallflower flatsedge = experiment: Test B flood test smallflower flatsedge; format: in vivo, Cyperus difformis
Procedure, shortened: as §2

duck salad = experiment: Test B flood test duck salad; format: in vivo, Heteranthera limosa
Procedure, shortened: as §2

[1] = Postemergence, Rate 250 g/ha, scale 0 to 10
[2] = Postemergence, Rate 500 g/ha, scale of 0 to 10 where 0 is no effect and 10 is complete control
[3] = Preemergence, Rate 62 g/ha, scale of 0 to 10 where 0 is no effect and 10 is complete control
[4] = Preemergence, Rate 125 g/ha, scale of 0 to 10 where 0 is no effect and 10 is complete control
[5] = Preemergence, Rate 250 g/ha, scale 0 to 10, 0 is no effect, 10 is complete control
[6] = Preemergence, Rate 500 g/ha, scale 0 to 10, 0 is no effect, 10 is complete control
[7] = Rate 62 g/ha, Postemergence, scale 0 to 10 (0 no effect, 10 complete control)
[8] = Rate 125 g/ha, Postemergence, scale 0 to 10, 0 is no effect, 10 is complete control
[9] = Rate 62 g/ha, flood test species, Pre-emergence, visual evaluation after twelve to sixteen days
[10] = Rate 125 g/ha, under heading Pre-emergence, flood test species, visual evaluation after twelve to sixteen days
[11] = Rate 250 g/ha, Pre-emergence (flood test species), scale 0 to 10, 0 is no effect, 10 is complete control
[12] = Rate 500 g/ha, Pre-emergence, flood test species, scale 0 to 10 (0 no effect, 10 complete control)

CC(C)N(C(=O)n1oc(=O)n(C(CF)CF)c1=O)c1ccc(Cl)cc1 [Compound 468]
6: Plant response rating, Giant foxtail (giant foxtail; [3]) | Rape plant response rating (rape; [6]) | Sugarbeets plant response rating (sugar beet; [6]) | Wheat plant response rating (wheat; [6])
7: Blackgrass plant response rating (blackgrass; [1]) | Wild oats plant response rating (wild oat; [6])
1: Giant foxtail plant response rating (giant foxtail; [7]) | Soybean plant response rating (soybean; [1]) | Soybean plant response rating (soybean; [7]) | Soybean plant response rating (soybean; [8]) | Velvetleaf plant response rating (velvetleaf; [5])
9: Blackgrass plant response rating (blackgrass; [6]) | Giant foxtail plant response rating (giant foxtail; [1]) | Giant foxtail plant response rating (giant foxtail; [2]) | Giant foxtail plant response rating (giant foxtail; [5])
0: Blackgrass plant response rating (blackgrass; [7]) | B. signalgrass plant response rating (surinam grass; Postemergence, Rate 250 g/ha, scale 0 to 10, 0 no effect, 10 complete control) | B. signalgrass plant response rating (surinam grass; [2]) | Plant response rating, B. signalgrass (surinam grass; [3]) | B. signalgrass plant response rating (surinam grass; [7]) | B. signalgrass plant response rating (surinam grass; [8]) | Plant response rating, Cocklebur (cocklebur; [3]) | Plant response rating, Cocklebur (cocklebur; [4]) | Cocklebur plant response rating (cocklebur; [5]) | Cocklebur plant response rating (cocklebur; [6]) | Cocklebur plant response rating (cocklebur; [7]) | Cocklebur plant response rating (cocklebur; [8]) | Corn plant response rating (corn; [1]) | Corn plant response rating (corn; [2]) | Plant response rating, Corn (corn; [3]) | Plant response rating, Corn (corn; [4]) | Corn plant response rating (corn; [5]) | Corn plant response rating (corn; [7]) | Corn plant response rating (corn; [8]) | Plant response rating, Morningglory (morningglory; Preemergence, Rate 62 g/ha) | Plant response rating, Morningglory (morningglory; Preemergence, Rate 125 g/ha) | Morningglory plant response rating (morningglory; [5]) | Plant response rating, Redroot pigweed (pigweed; Preemergence, Rate 62 g/ha) | Redroot pigweed plant response rating (pigweed; [7]) | Rape plant response rating (rape; [1]) | Plant response rating, Rape (rape; Preemergence, Rate 62 g/ha) | Plant response rating, Rape (rape; Preemergence, Rate 125 g/ha) | Rape plant response rating (rape; [7]) | Rape plant response rating (rape; [8]) | Plant response rating, Soybean (soybean; Preemergence, Rate 62 g/ha) | Plant response rating, Soybean (soybean; Preemergence, Rate 125 g/ha) | Soybean plant response rating (soybean; [5]) | Soybean plant response rating (soybean; [6]) | Sugarbeets plant response rating (sugar beet; [1]) | Plant response rating, Sugarbeets (sugar beet; Preemergence, Rate 62 g/ha) | Plant response rating, Sugarbeets (sugar beet; Preemergence, Rate 125 g/ha) | Sugarbeets plant response rating (sugar beet; [7]) | Sugarbeets plant response rating (sugar beet; [8]) | Plant response rating, Velvetleaf (velvetleaf; Preemergence, Rate 62 g/ha) | Plant response rating, Velvetleaf (velvetleaf; Preemergence, Rate 125 g/ha) | Velvetleaf plant response rating (velvetleaf; [7]) | Velvetleaf plant response rating (velvetleaf; [8]) | Wheat plant response rating (wheat; [1]) | Plant response rating, Wheat (wheat; Preemergence, Rate 62 g/ha) | Plant response rating, Wheat (wheat; Preemergence, Rate 125 g/ha) | Wheat plant response rating (wheat; [5]) | Wheat plant response rating (wheat; [7]) | Wheat plant response rating (wheat; [8]) | Wild oats plant response rating (wild oat; [1]) | Plant response rating, Wild oats (wild oat; Preemergence, Rate 62 g/ha) | Plant response rating, Wild oats (wild oat; Preemergence, Rate 125 g/ha) | Wild oats plant response rating (wild oat; [7]) | Wild oats plant response rating (wild oat; [8]) | Plant response rating, Rice (0 to 10 scale, 0 is no effect, 10 is complete control) (rice; [9]) | Rice plant response rating (0 to 10 scale, 0 is no effect, 10 is complete control) (rice; [10]) | Rice plant response rating (rice; [11]) | Rice plant response rating (rice; [12]) | Plant response rating, S. Flatsedge (0 to 10 scale, 0 is no effect, 10 is complete control) (smallflower flatsedge; [9]) | S. Flatsedge plant response rating (0 to 10 scale, 0 is no effect, 10 is complete control) (smallflower flatsedge; [10]) | S. Flatsedge plant response rating (smallflower flatsedge; [11]) | S. Flatsedge plant response rating (smallflower flatsedge; [12]) | Plant response rating, Ducksalad (0 to 10 scale, 0 is no effect, 10 is complete control) (duck salad; [9]) | Ducksalad plant response rating (0 to 10 scale, 0 is no effect, 10 is complete control) (duck salad; [10]) | Ducksalad plant response rating (duck salad; [11]) | Ducksalad plant response rating (duck salad; [12])
2: Plant response rating, B. signalgrass (surinam grass; [4]) | Cocklebur plant response rating (cocklebur; [1]) | Corn plant response rating (corn; [6]) | Morningglory plant response rating (morningglory; [6]) | Morningglory plant response rating (morningglory; [7]) | Redroot pigweed plant response rating (pigweed; [8]) | Sugarbeets plant response rating (sugar beet; [5]) | Velvetleaf plant response rating (velvetleaf; [1])
10: Giant foxtail plant response rating (giant foxtail; [6]) | Redroot pigweed plant response rating (pigweed; [6])
3: Plant response rating, Blackgrass (blackgrass; [3]) | B. signalgrass plant response rating (surinam grass; [5]) | Giant foxtail plant response rating (giant foxtail; [8]) | Morningglory plant response rating (morningglory; [8]) | Rape plant response rating (rape; [5]) | Wild oats plant response rating (wild oat; [5])
5: Blackgrass plant response rating (blackgrass; [5]) | Blackgrass plant response rating (blackgrass; [8])
4: Plant response rating, Blackgrass (blackgrass; [4]) | B. signalgrass plant response rating (surinam grass; [6]) | Cocklebur plant response rating (cocklebur; [2]) | Morningglory plant response rating (morningglory; [1]) | Redroot pigweed plant response rating (pigweed; [1]) | Plant response rating, Redroot pigweed (pigweed; Preemergence, Rate 125 g/ha) | Velvetleaf plant response rating (velvetleaf; [6])
8: Blackgrass plant response rating (blackgrass; [2]) | Plant response rating, Giant foxtail (giant foxtail; [4]) | Redroot pigweed plant response rating (pigweed; [5])
